Assay results as given in PubChem BioAssay (NCI).
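Each compound was tested at five concentrations against cells in 96-well plates for 48 hours. At the GI50, growth is halved. The concentration for full growth arrest is given as TGI.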

Experiments:
Test in all cases: DTP human tumour cell line panel, 48 h
[1] = system: 786-0 renal
[2] = system: A498 renal
[3] = system: A549 NSCLC
[4] = system: ACHN renal
[5] = system: BT-549 breast
[6] = system: CAKI-1 renal
[7] = system: CCRF-CEM leukemia
[8] = system: COLO 205 colon
[9] = system: DU-145 prostate
[10] = system: EKVX NSCLC
[11] = system: HCC-2998 colon
[12] = system: HCT-116 colon
[13] = system: HCT-15 colon
[14] = system: HL-60(TB) leukemia
[15] = system: HOP-62 NSCLC
[16] = system: HOP-92 NSCLC
[17] = system: HS 578T breast
[18] = system: HT29 colon
[19] = system: IGROV1 ovarian
[20] = system: K-562 leukemia
[21] = system: KM12 colon
[22] = system: LOX IMVI melanoma
[23] = system: M14 melanoma
[24] = system: MALME-3M melanoma
[25] = system: MCF7 breast
[26] = system: MDA-MB-231 breast
[27] = system: MDA-MB-435
[28] = system: MDA-MB-468 breast
[29] = system: MOLT-4 leukemia
[30] = system: NCI-H226 lung
[31] = system: NCI-H23 lung
[32] = system: NCI-H460 lung
[33] = system: NCI-H522 lung
[34] = system: NCI/ADR-RES ovarian
[35] = system: OVCAR-3 ovarian
[36] = system: OVCAR-4 ovarian
[37] = system: OVCAR-5 ovarian
[38] = system: OVCAR-8 ovarian
[39] = system: PC-3 prostate
[40] = system: RPMI-8226 leukemia
[41] = system: RXF 393 renal
[42] = system: SF-268 CNS
[43] = system: SF-295 CNS
[44] = system: SF-539 CNS
[45] = system: SK-MEL-2 melanoma
[46] = system: SK-MEL-28 melanoma
[47] = system: SK-MEL-5 melanoma
[48] = system: SK-OV-3 ovarian
[49] = system: SN12C renal
[50] = system: SNB-19 CNS
[51] = system: SNB-75 CNS
[52] = system: SR leukemia
[53] = system: SW-620 colon
[54] = system: T-47D breast
[55] = system: TK-10 renal
[56] = system: U251 CNS
[57] = system: UACC-257 melanoma
[58] = system: UACC-62 melanoma
[59] = system: UO-31 renal

CC1(C)CC[C@]2(C(=O)Nc3ccccc3)CC[C@]3(C)C(=CC[C@@H]4[C@@]5(C)CC[C@H](N)C(C)(C)[C@@H]5CC[C@]43C)[C@H]2C1
GI50 [1]: 13.8 µM | TGI [1]: 29 µM | GI50 [2]: 13.2 µM | TGI [2]: 27.1 µM | GI50 [3]: 17.4 µM | TGI [3]: 41.6 µM | GI50 [4]: 15.9 µM | TGI [4]: 29.5 µM | GI50 [5]: 18.3 µM | TGI [5]: 32.9 µM | GI50 [6]: 14.6 µM | TGI [6]: 28.5 µM | GI50 [7]: 14.6 µM | TGI [7]: 34.5 µM | GI50 [8]: 15.6 µM | TGI [8]: 35.7 µM | GI50 [9]: 16.1 µM | TGI [9]: 30.6 µM | GI50 [10]: 15.6 µM | TGI [10]: 30.4 µM | GI50 [11]: 12 µM | TGI [11]: 25.1 µM | GI50 [12]: 9.26 µM | TGI [12]: 26.2 µM | GI50 [13]: 13.6 µM | TGI [13]: 27.9 µM | GI50 [14]: 10 µM | TGI [14]: 37.5 µM | GI50 [15]: 15.8 µM | TGI [15]: 32.4 µM | GI50 [16]: 11.5 µM | TGI [16]: 26.1 µM | GI50 [17]: 16.2 µM | TGI [17]: 35.2 µM | GI50 [18]: 17.5 µM | TGI [18]: 39.9 µM | GI50 [19]: 15.8 µM | TGI [19]: 30.2 µM | GI50 [20]: 4.07 µM | TGI [20]: > 100 µM | GI50 [21]: 17.3 µM | TGI [21]: 32.4 µM | GI50 [22]: 4.31 µM | TGI [22]: 16.2 µM | GI50 [23]: 17.6 µM | TGI [23]: 33.8 µM | GI50 [24]: 16.4 µM | TGI [24]: 30.3 µM | GI50 [25]: 3.51 µM | TGI [25]: 14.7 µM | GI50 [26]: 16.1 µM | TGI [26]: 30 µM | GI50 [27]: 14.8 µM | TGI [27]: 29 µM | GI50 [28]: 13.3 µM | TGI [28]: 28.1 µM | GI50 [29]: 15.3 µM | TGI [29]: 42 µM | GI50 [30]: 14.9 µM | TGI [30]: 31.8 µM | GI50 [31]: 16.8 µM | TGI [31]: 31.5 µM | GI50 [32]: 13.4 µM | TGI [32]: 28 µM | GI50 [33]: 16.2 µM | TGI [33]: 32.4 µM | GI50 [34]: 16.2 µM | TGI [34]: 31.9 µM | GI50 [35]: 13.2 µM | TGI [35]: 26.6 µM | GI50 [36]: 15.8 µM | TGI [36]: 31.4 µM | GI50 [37]: 16.2 µM | TGI [37]: 30 µM | GI50 [38]: 18.2 µM | TGI [38]: 38.3 µM | GI50 [39]: 15.9 µM | TGI [39]: 31.8 µM | GI50 [40]: 19 µM | TGI [40]: 80 µM | GI50 [41]: 10.2 µM | TGI [41]: 24 µM | GI50 [42]: 16.6 µM | TGI [42]: 33.5 µM | GI50 [43]: 15.6 µM | TGI [43]: 30.4 µM | GI50 [44]: 15.4 µM | TGI [44]: 29.1 µM | GI50 [45]: 17.1 µM | TGI [45]: 32.3 µM | GI50 [46]: 17.5 µM | TGI [46]: 31.7 µM | GI50 [47]: 15.5 µM | TGI [47]: 29 µM | GI50 [48]: 17.2 µM | TGI [48]: 33.6 µM | GI50 [49]: 16.5 µM | TGI [49]: 30.6 µM | GI50 [50]: 16.4 µM | TGI [50]: 30.6 µM | GI50 [51]: 12.2 µM | TGI [51]: 25.5 µM | GI50 [52]: 2.84 µM | TGI [52]: 13.3 µM | GI50 [53]: 5.47 µM | TGI [53]: 20.3 µM | GI50 [54]: 14.9 µM | TGI [54]: 34.7 µM | GI50 [55]: 17.4 µM | TGI [55]: 33.3 µM | GI50 [56]: 17.5 µM | TGI [56]: 35.1 µM | GI50 [57]: 15.8 µM | TGI [57]: 32.2 µM | GI50 [58]: 16.7 µM | TGI [58]: 30.6 µM | GI50 [59]: 13.9 µM | TGI [59]: 27.1 µM
